Data: PMC9851200, “Multiparameter phenotypic screening for endogenous TFEB and TFE3 translocation identifies novel chemical series modulating lysosome function” (Autophagy, 2022)

How the values were obtained:
Type in all cases: binding
[1] = target: T1, kinases (KINOMEscan panel) (Homo sapiens, UniProt P51955); conditions: kinase NEK2; NEW KINOMEscan
T1 sequence (P51955 1-445): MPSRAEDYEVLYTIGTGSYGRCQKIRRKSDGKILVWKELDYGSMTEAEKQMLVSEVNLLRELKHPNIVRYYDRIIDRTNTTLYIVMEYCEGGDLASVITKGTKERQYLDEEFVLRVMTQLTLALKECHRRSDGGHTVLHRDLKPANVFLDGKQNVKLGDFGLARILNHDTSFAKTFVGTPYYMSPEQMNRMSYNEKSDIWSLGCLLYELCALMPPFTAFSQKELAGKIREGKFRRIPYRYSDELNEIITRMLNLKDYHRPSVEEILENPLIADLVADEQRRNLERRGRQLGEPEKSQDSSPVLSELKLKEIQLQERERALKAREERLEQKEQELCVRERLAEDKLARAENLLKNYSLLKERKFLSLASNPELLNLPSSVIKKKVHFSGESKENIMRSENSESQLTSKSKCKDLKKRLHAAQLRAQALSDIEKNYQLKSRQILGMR

[2] = target: kinases (KINOMEscan panel) (Homo sapiens, UniProt P53355); conditions: kinase DAPK1; NEW KINOMEscan
[3] = target: T2, kinases (KINOMEscan panel) (Homo sapiens, UniProt P30530); conditions: AXL; NEW KINOMEscan
T2 sequence (P30530 26-894): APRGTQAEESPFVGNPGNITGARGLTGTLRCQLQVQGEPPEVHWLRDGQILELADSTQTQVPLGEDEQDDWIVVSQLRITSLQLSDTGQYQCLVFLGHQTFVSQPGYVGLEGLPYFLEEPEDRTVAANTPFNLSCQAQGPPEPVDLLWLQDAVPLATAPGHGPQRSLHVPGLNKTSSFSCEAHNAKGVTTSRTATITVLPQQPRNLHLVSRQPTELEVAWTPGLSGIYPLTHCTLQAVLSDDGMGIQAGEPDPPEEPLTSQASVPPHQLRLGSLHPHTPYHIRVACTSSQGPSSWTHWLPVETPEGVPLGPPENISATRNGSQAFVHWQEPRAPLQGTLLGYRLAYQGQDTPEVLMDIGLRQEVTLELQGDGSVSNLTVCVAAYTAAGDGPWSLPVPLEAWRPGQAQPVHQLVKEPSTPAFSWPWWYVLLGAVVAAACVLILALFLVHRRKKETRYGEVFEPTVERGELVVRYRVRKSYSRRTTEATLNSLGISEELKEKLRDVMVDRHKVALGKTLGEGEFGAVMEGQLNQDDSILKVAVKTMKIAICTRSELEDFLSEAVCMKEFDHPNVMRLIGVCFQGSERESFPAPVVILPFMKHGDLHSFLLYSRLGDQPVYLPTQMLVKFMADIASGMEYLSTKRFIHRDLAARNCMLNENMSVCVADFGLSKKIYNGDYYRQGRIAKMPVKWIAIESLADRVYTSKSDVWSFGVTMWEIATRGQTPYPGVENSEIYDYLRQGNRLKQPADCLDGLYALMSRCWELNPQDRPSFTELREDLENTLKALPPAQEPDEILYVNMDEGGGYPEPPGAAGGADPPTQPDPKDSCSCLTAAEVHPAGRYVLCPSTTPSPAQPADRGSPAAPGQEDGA

[4] = target: T3, kinases (KINOMEscan panel) (Homo sapiens, UniProt Q04771); conditions: ACVR1; NEW KINOMEscan
T3 sequence (Q04771 21-509): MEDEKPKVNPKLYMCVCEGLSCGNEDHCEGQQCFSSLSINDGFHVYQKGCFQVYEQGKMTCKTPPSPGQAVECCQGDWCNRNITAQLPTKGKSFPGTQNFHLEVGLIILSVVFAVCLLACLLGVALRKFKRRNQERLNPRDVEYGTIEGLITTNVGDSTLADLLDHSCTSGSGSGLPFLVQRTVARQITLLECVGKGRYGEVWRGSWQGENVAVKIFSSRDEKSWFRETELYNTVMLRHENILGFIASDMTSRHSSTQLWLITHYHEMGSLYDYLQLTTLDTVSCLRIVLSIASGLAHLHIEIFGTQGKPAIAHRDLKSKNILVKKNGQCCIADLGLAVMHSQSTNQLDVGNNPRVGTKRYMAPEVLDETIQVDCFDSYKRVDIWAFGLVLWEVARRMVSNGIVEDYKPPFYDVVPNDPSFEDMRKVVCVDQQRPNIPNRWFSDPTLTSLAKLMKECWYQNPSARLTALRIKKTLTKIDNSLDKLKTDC

[5] = target: kinases (KINOMEscan panel) (Homo sapiens, UniProt O75716); conditions: kinase STK16; NEW KINOMEscan
[6] = target: kinases (KINOMEscan panel) (Homo sapiens, UniProt O00750); conditions: PIK3C2B; NEW KINOMEscan
kinases (KINOMEscan panel) (Homo sapiens, UniProt O00750), sequence (O00750 whole entry): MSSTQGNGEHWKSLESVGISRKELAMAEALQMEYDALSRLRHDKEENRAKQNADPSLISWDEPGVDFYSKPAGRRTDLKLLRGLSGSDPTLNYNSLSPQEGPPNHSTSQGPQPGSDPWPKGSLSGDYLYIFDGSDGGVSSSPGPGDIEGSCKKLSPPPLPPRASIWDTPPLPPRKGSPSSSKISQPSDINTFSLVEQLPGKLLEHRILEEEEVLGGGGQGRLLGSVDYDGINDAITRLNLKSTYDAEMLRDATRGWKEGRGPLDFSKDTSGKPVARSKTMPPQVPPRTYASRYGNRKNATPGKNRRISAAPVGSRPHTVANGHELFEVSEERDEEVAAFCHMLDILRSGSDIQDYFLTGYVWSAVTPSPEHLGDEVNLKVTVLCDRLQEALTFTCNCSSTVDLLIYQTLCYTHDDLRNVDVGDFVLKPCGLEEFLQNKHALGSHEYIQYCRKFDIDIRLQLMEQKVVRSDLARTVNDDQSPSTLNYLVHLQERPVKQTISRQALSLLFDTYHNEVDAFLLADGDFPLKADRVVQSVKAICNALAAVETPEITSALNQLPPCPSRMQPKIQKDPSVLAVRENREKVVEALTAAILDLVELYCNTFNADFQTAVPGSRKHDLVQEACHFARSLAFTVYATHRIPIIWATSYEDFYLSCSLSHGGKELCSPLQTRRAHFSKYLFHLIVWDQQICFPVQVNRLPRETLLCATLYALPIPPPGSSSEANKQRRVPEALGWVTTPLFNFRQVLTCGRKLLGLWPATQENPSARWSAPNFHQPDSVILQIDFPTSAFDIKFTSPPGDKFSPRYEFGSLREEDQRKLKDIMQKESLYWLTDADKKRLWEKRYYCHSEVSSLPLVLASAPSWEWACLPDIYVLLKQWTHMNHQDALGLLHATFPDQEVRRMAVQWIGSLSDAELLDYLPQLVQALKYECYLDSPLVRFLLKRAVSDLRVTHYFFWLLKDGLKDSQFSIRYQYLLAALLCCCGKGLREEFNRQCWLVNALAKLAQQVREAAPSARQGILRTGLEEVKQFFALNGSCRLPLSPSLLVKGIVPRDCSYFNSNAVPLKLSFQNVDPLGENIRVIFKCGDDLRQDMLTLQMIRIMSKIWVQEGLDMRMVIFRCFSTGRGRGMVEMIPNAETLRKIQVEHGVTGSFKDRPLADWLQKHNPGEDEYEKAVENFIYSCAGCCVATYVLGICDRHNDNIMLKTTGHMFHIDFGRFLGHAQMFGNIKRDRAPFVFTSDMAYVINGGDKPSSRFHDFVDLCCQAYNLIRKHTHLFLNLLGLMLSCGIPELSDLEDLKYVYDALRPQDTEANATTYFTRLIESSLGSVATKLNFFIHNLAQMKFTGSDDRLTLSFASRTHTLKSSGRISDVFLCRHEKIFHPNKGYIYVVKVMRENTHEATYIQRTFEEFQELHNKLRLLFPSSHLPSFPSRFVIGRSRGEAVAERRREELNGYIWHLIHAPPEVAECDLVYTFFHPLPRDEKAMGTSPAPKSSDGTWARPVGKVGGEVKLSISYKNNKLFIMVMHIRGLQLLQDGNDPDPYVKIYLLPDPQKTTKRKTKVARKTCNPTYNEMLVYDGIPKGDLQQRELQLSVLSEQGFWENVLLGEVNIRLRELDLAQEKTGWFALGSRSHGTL

kinases (KINOMEscan panel) (Homo sapiens, UniProt O75716), sequence (O75716 whole entry): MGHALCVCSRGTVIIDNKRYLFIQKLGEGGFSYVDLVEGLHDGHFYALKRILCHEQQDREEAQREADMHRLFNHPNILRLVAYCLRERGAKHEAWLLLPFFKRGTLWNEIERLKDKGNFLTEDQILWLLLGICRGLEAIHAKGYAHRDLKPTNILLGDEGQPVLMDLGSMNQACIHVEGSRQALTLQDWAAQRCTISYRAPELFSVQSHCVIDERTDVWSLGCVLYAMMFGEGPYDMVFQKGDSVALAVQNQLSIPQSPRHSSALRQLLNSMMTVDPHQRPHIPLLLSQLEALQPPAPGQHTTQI
kinases (KINOMEscan panel) (Homo sapiens, UniProt P53355), sequence (P53355 whole entry): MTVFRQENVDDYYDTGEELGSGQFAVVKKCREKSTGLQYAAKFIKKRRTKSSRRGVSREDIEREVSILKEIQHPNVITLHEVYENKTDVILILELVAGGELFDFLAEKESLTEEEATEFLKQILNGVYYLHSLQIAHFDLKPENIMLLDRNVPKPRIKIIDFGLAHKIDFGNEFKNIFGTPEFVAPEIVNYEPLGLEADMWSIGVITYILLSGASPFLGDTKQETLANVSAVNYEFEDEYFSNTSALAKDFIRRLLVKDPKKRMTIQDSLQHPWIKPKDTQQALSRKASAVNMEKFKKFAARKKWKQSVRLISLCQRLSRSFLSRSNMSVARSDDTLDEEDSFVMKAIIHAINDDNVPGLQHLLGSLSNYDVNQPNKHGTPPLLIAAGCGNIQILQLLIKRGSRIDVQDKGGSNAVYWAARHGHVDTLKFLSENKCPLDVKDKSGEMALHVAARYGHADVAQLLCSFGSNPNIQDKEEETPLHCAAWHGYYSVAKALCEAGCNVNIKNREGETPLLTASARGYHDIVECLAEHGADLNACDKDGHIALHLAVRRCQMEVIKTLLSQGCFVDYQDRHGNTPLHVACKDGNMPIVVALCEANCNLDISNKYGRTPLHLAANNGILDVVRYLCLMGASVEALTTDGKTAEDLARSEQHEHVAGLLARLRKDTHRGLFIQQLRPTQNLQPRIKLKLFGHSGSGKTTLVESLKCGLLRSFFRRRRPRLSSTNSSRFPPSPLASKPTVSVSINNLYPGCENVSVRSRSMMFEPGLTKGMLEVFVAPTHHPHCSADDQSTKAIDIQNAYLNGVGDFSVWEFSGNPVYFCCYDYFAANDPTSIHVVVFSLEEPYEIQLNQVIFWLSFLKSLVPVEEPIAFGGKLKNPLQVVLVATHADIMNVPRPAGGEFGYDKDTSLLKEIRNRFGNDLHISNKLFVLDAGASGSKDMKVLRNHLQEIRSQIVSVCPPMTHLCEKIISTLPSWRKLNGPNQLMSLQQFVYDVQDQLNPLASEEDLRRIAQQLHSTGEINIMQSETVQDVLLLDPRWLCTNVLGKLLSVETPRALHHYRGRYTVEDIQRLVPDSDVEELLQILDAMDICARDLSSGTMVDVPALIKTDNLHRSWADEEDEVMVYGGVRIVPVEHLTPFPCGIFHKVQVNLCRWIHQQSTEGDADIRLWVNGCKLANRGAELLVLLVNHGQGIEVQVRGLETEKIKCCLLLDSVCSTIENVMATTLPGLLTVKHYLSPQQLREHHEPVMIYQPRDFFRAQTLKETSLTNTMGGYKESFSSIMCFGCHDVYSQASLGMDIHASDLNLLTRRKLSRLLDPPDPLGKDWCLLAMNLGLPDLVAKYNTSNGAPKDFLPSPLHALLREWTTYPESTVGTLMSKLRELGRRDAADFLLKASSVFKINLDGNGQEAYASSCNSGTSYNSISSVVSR

Row | Structure (SMILES) | KINOMEscan NEK2 [1] | KINOMEscan DAPK1 [2] | KINOMEscan AXL [3] | KINOMEscan ACVR1 [4] | KINOMEscan STK16 [5] | KINOMEscan PIK3C2B [6]
1 | Cc1cccc(-c2nc(Nc3ccc4nn(C)cc4c3)c3ccccc3n2)n1 [NK167] | 0 | 0 | 0 | 0 | 19 | 0
2 | Cc1cccc(-c2nc(N(C)c3ccc4ncsc4c3)c3ccccc3n2)n1 [NK-161] | 1 | 0 | 0 | 0 | 15 | 0
